These results are taken from patent US7635701B2 (Glaxo Group Limited, priority 2002, dated 2009).

Data set [1] addresses human cannabinoid CB2 receptor (Homo sapiens, UniProt P34972). The experiment in a line: Cannabinoid CB2 receptor agonist activity in yeast cells (FDGlu fluorescence).
A short description of data set [2]: Particle size analysis on Lecotrac laser particle size analyser, pre and post nanomilling. The settings on record: for Post-nanomilling 50% percentile particle size / Post-nanomilling 95% percentile particle size: after wet milling in aqueous 1.5% HPMC with YTZ beads; for Pre-nanomilling 50% percentile particle size / Pre-nanomilling 95% percentile particle size: starting material before nanomilling. Format: physicochemical. The method, then: The particle size of the solid particles of compound (1) may be determined by laser diffraction. A suitable machine for determining particle size by laser diffraction is a Lecotrac laser particle size analyser, using an HELOS optical bench fitted with a QUIXEL dispersion unit.
2.5 g of compound of example 176 was weighed into a […] centrifuge tube. 25 ml of 0.3 mm yttrium zirconium (YTZ) ceramic milling beads (Manufacturer: Tosoh, Japan; Supplier: Glen Creston Ltd., batch no. 5280130030)”) was weighed into a 50 ml milling pot. 22.5 ml of aqueous 1.5% HPMC was measured with a measuring cylinder into a 100 ml beaker. This solution was homogenised for 3 seconds with an Ultra Turrax T25 homogeniser. Approximately 200 mg of the 2.5 g of the compound was added to the HPMC solution and homogenised at the lowest speed setting until the powder was wetted. This was repeated until all the compound had been added. The speed of the homogeniser was then increased to maximum and the suspension was homogenised for a further 3 minutes. This suspension was allowed to stand for 30 minutes in order to allow some of the foam to disperse. The suspension was then poured into the 50 ml pot containing the YTZ milling beads, stirring to release any trapped air. The lid to the pot was then fitted and the pot sealed with some Nesco film. This procedure was repeated for a second 50 ml nanomilling pot and both pots were placed on a Retsch mill and milled for a total of 8 hours.
The milling pots were removed from the Retsch mill and left to cool and for the foam to disperse overnight. In the morning the suspension and bead mixture was passed through a 200μ, 40 mm diameter screen. The contents from each 50 ml pot was washed with aqueous 1.5% HPMC: 10% of the original suspension volume (i.e. 2.5 ml). The suspension from the 2 pots was combined to make 1 batch. The suspension obtained from the method above was named the concentrate.
A particle size analysis was carried out on the Lecotrac laser particle size analyser. The results are shown in Table B along with the results from the starting material for comparison:
Compounds of Examples 19, 34, 194, 217, 228, 247 were nanomilled on a 1 g scale using the process described above and the particle size analysed pre and post nanomilling.

Sequence of human cannabinoid CB2 receptor (P34972 whole entry): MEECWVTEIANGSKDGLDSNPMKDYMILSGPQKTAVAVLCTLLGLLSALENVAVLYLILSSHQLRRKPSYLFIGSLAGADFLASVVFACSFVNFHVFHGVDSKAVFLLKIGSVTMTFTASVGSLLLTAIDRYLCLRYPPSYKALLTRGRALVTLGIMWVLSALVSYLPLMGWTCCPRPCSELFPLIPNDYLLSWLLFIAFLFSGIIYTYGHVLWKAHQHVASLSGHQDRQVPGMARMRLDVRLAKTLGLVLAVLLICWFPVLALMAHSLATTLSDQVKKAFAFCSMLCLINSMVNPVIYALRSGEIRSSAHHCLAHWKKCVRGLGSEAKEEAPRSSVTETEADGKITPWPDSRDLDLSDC

For orientation: EC50 means the midpoint of the concentration-response curve. Turning to `O=C(c1cnc(Nc2cccc(Br)c2)nc1C(F)(F)F)N1CCCCC1` [Example 12], the EC50 in data set [1] fell in the range of 20 to 300 nM.

`O=C(NCC1(O)CCCCC1)c1cnc(Nc2cccc(F)c2)nc1C(F)(F)F` [Example 86, 2-(3-Fluoropheny1-amino)4-trifluoro-methyl-pyrimidine-5-carboxylic acid(1-hydroxy-cyclohexyl-methyl)amide] registered an EC50 in data set [1] of 300 to 1000 nM.

Take `CC(C)CNC(=O)c1cnc(Nc2cccc(Cl)c2)nc1C(F)(F)F` [Example 210]: the EC50 in data set [1] fell in the range of 20 to 300 nM.

In turn, `O=C(NC1CCSCC1)c1cnc(Nc2cccc(Cl)c2Cl)nc1C(F)(F)F` [Example 81, 2-(2,3-Diclorophenylamino)-4-trifluoromethyl-pyrimidine-5-carboxylic acid (tetrahydro-thiopyran-4-yl)-amide] yielded an EC50 in data set [1] of 300 to 1000 nM.

Turning to `N#Cc1ccc(Nc2ncc(C(=O)NCC3CCOCC3)c(C(F)(F)F)n2)cc1Cl` [Ex 217, 2-(4-Cyano-3-chloro-phenylamino)-4-trifluoromethyl-pyrimidine-5-carboxylic acid (tetrahydro-pyran-4-ylmethyl)-amide], in data set [2], the “Post-nanomilling 50% percentile particle size” value amounted to 0.34 μ, the “Post-nanomilling 95% percentile particle size” value is on record as 1.30 μ, the “Pre-nanomilling 50% percentile particle size” value is 5.70 μ and the “Pre-nanomilling 95% percentile particle size” value turned out to be 34.9 μ.

For the molecule `N#Cc1ccc(Nc2ncc(C(=O)NCC3CCCC3)c(C(F)(F)F)n2)cc1` [Example 176, 2-(4-Cyanophenylamino)-4-trifluoromethyl-pyrimidine-5-carboxylic acid cyclopentylmethyl-amide], in data set [2], the “Post-nanomilling 50% percentile particle size” value turned out to be 0.33 μ, the “Post-nanomilling 95% percentile particle size” value stood at 1.78 μ, the “Pre-nanomilling 50% percentile particle size” value turned out to be 13.15 μ and the “Pre-nanomilling 95% percentile particle size” value was 68.7 μ.

Consider `O=C(NCC1CCCCC1)c1cnc(Nc2ccccc2)nc1C(F)(F)F` [Example 5], for which, in data set [1], the EC50 was 20 to 300 nM.

In the case of `O=C(NCC1CCCC1)c1cnc(Nc2ccc(F)c(Cl)c2)nc1C(F)(F)F` [Ex 247, 2-(3-Chloro-4-fluoro-phenylamino)-4-trifluoromethyl-pyrimidine-5-carboxylic acid cyclopentylmethyl-amide], in data set [2], the “Post-nanomilling 50% percentile particle size” value is listed as 0.64 μ, the “Post-nanomilling 95% percentile particle size” value was found to be 2.53 μ, the “Pre-nanomilling 50% percentile particle size” value came to 13.2 μ and the “Pre-nanomilling 95% percentile particle size” value was found to be 68.7 μ.

For the molecule `O=C(NCC1CCCCC1)c1cnc(Nc2cccc(F)c2)nc1C(F)(F)F` [Example 19, 2-(3-Fluorophenylamino)-4-trifluoromethylpyrimidine-5-arboxylic acid cyclohexylmethyl-amide], in data set [2], the “Post-nanomilling 50% percentile particle size” value was determined as 0.40 μ, the “Post-nanomilling 95% percentile particle size” value was determined as 1.40 μ, the “Pre-nanomilling 50% percentile particle size” value was determined as 5.22 μ and the “Pre-nanomilling 95% percentile particle size” value is reported as 25.5 μ.

Take `O=C(NCC1CCCO1)c1cnc(Nc2cccc(F)c2)nc1C(F)(F)F` (stereo in doubt) [Example 73, 2-(3-Fluoro-phenylamino)-4-trifluoromethyl-pyrimidine-5-carboxylic acid [(R)-1-(tetrahydro-furan-2-yl)methyl]-amide]: the EC50 in data set [1] was 300 to 1000 nM.

The molecule `N#Cc1ccc(Nc2ncc(C(=O)NCC3CCC3)c(C(F)(F)F)n2)cc1Cl` [Example 197] came in with an EC50 in data set [1] of 20 to 300 nM.
